In US20130079309A1, “Method Of Treating Acute Lung Injury Using Sphingosine 1 Phosphate Analogs Or Sphingosine 1 Phosphate Receptor Agonists” (The Board of Trustees of the University of Illinois, priority 2010, published 2013):

Assays:
[1] = tested on: HPAEC; assay: Transwell transendothelial permeability assay (FITC-dextran); format: cell-based, human; details: 1 μM (3R, 3S 25 μM), 1 h before FITC-dextran, 2-h incubation
Experimental: As a complementary approach to further characterize the barrier-protective effects of these FTY720 analogs in vitro, the permeability of FITC-labeled dextran across the pulmonary EC monolayer was assayed in response to treatment by the FTY720 analogs. […] Data were normalized to unstimulated control. n=3 independent experiments per condition; *, p<0.01 versus unstimulated condition (see FIG. 26).

[2] = tested on: HPAEC; details: Camp et al., 2009; cited from earlier work
[3] = tested on: β-arrestin; details: 1 μM (SEW2871 10 μM; (S)-FTY720-phosphonate 1, 10, 50 μM), 5 h
Experimental: After another 2 h-incubation with fluorescence substrate, the fluorescence intensity (blue and green channels) were detected and the blue/green emission ratio was used as the activation indicator.

[4] = tested on: HPAEC; assay: Transendothelial electrical resistance (TER) of HPAEC; format: cell-based, human; details: 10 μM, within 60 min
Experimental: Cells were grown at 37° C. in a 5% CO2 incubator, and passages 6 to 9 were used for experiments. Media were changed 1 day before experimentation.

[5] = target: T1, S1P receptor 1 (S1PR1) (Homo sapiens, UniProt P21453); assay: Ubiquitination of S1PR1 in HPAEC (immunoprecipitation, ubiquitin Ab); details: 1 μM, 1 h
From the text: S1PR1 was immunoprecipitated by S1PR1Ab, and ubiquitination of S1PR1 was detected by ubiquitin Ab.

[6] = tested on: HPAEC; assay: Intracellular calcium by Fura-2; format: cell-based, human; details: 1 μM
Experimental: To further explore the mechanistic differences in barrier regulation, intracellular calcium responses to the FTY720 analogs, S1P, and FTY720 were examined using Fura-2 (Harbeck et al., 2006, Sci STKE 2006: p16). HPAEC plated on 25-mm glass coverslips were loaded with 1 μM Fura-2/acetoxymethyl ester (Invitrogen, Carlsbad, Calif.) for 20 min at 37° C. in KRBH5 buffer (Krebs-Ringer-bicarbonate solution containing 119 mM NaCl, 4.7 mM KCl, 2.5 mM CaCl2, 1 mM MgCl2, 1 mM KH2PO4, 25 mM NaHCO3, mM HEPES-NaOH (pH 7.4), and 5 mM glucose). After replacement of the Fura-2 loading buffer with fresh KRBH5, coverslips were placed into the specimen stage of an inverted fluorescence microscope (Nikon TE-2000U). A Nikon Super Fluor 10× objective was used for these studies. Filters (340- and 380-nm excitation and 530-nm emission) were used for Fura-2 dual excitation ratio imaging. […] Fura-2 ratios were converted to [Ca^2+] using the equation: [Ca^2+]=(Kd′[(R−Rmin)/(Rmax−R)]×Sf/Sb) (Grynkiewicz et al., 1985, J Biol Chem 260: 3440-3450), where Kd′ is the dissociation constant for Fura-2 in the cytosol (225 nM) and Sf and Sb are the measured emission intensities at 380 nm for Ca^2+-free and Ca^2+-bound Fura-2, respectively. Data summaries for all Ca^2+ measurements are expressed as the means±S.E.

[7] = tested on: LPS-induced lung injury in C57BL/6 mice; assay: LPS-induced murine lung injury model; details: 1S 0.1-5.0 mg/kg i.p. single dose 1 h after LPS 2.5 mg/kg i.t.; 18 h; FTY720 0.5 mg/kg, S1P 0.026 mg/kg
Experimental: For experiments performed in intact animals, male C57BL/6 mice (8-10 weeks) were anesthetized with intraperitoneal ketamine and acetylpromazine mixture according to the approved protocol. Escherichia coli LPS solution (2.5 mg/kg) or sterile saline was instilled intratracheally via a 20-gauge catheter. Simultaneously, mice received either FTY720 or analogs (in doses: 0.01, 0.1, 0.5, 1, and 5 mg/kg i.p.) or PBS as vehicle. The animals were allowed to recover for 18 h. BAL and lungs were collected and stored at −70° C. for evaluation of lung injury.
Pure BAL fluids prepared for protein measurement or myeloperoxidase activity (MPO) lung homogenates were used to test albumin concentration. The assay was performed in 96-well plastic plates (Nalge Nunc A/S, Roskilde, Denmark). Plates were coated with mouse albumin (Bethyl Lab, Montgomery, Tex.), washed, and blocked. Aliquots (100-μl) of the sample or standard and 100 μl of goat anti-mouse albumin antibody (horseradish peroxidase-conjugated) (1:50,000) were then added, followed by incubation at 37° C. for 1 h. Finally, the substrate 3,3′,5,5′-tetramethylbenzidine was added for 10 min, and the reaction stopped by adding 100 μl of 2 M H2SO4. The absorbance at 450 nm was read on a kinetic microplate reader (Molecular Devices).
Myeloperoxidase (MPO) was isolated and measured from snap-frozen right lungs as follows (see also Remick et al., 1990, Am J Pathol 136: 49-60). The right lung was homogenized in 1 ml of 50 mM potassium phosphate, pH 6.0, with 0.5% hexadecyltrimethylammonium bromide. The resulting homogenate was sonicated and then centrifuged at 12,000 g for 15 min. The supernatant was mixed 1:30 with assay buffer (100 mM potassium phosphate, pH 6.0, 0.005% H2O2, 0.168 mg/ml o-dianisidine hydrochloride), and absorbance read at 490 nm. MPO units were calculated as the change in absorbance with respect to time.
Peripheral blood was examined by the Missouri University Research Animal Diagnostic Laboratory (Columbia, Mo.) for determination of total blood cell counts and differentials in blood samples.
Values are shown as the mean±S.E. Data were analyzed using a standard Student's t test or one-way analysis of variance, groups were compared by Newman-Keuls test, and significance in all cases was defined at p<0.05.

[8] = tested on: ERK; assay: Western blotting of HPAEC lysates for phospho-ERK; format: cell-based, human; details: 5 min
Experimental: (§1) After treatment as outlined for individual experiments, confluent HPAEC were lysed for Western blotting with phospho-MLC, pan-MLC, phospho-ERK, or pan-ERK antibodies. […] Membranes were then immunoblotted with primary antibodies (1:500-1000, 4° C., overnight) followed by secondary antibodies conjugated to horseradish peroxidase (1:5000, room temperature, 30 min) and detected with enhanced chemiluminescence (Pierce ECL or SuperSignal West Dura; Pierce Biotechnology, Rockford, Ill.) on Biomax MR film (Carestream Health, Rochester, N.Y.).

[9] = tested on: MLC; assay: Western blotting of HPAEC lysates for phospho-MLC; format: cell-based, human; details: 5 min
Experimental: as §1

[10] = tested on: HPAEC; assay: Pharmacologic inhibitor effects on barrier enhancement (TER); details: 1 μM agonist, 60 min
Experimental: Endothelial cells were grown to confluence in polycarbonate wells containing evaporated gold microelectrodes (surface area, 10^−3 cm^2) in series with a large gold counter electrode (1 cm^2) connected to a phase-sensitive lock-in amplifier. Current was applied across the electrodes by a 4,000-Hz AC voltage source with amplitude of 1 V in series with a 1 MΩ resistance to approximate a constant current source (˜1 μA). The in-phase and out-of-phase voltages between the electrodes were monitored in real time with the lock-in amplifier and subsequently converted to scalar measurements of transendothelial impedance, of which resistance was the primary focus. TER was monitored for 30 minutes to establish a baseline resistance (R0) which, for bovine pulmonary endothelium, was typically between 8 to 12×10^3Ω (wells with R0<7×10^3Ω were rejected). As cells adhere and spread out on the microelectrode, TER increases (maximal at confluence), whereas cell retraction, rounding, or loss of adhesion is reflected by a decrease in TER. These measurements provide a highly sensitive biophysical assay that indicates the state of cell shape and focal adhesion. Values from each microelectrode were pooled at discrete time points and plotted versus time as the mean±SE of the mean. TER values from each microelectrode were pooled as discrete time points and plotted versus time as the mean±S.E.M.
In this experiment, confluent HPAEC were plated on gold microelectrodes and then stimulated with 1 μM S1P, FTY720, 1R, 1S, 2R, or 2S after either a 2-h preincubation with 100 ng/ml PTX, 30-min preincubation with 200 μM genistein (Gen), or 2-h preincubation with 2 mM MβCD or their respective vehicle controls. Data were pooled from multiple TER experiments (4-10 independent experiments per condition) and expressed as percentage inhibition of maximal barrier enhancement at 60 min relative to agonist-only control.

[11] = target: T1, S1P receptor 1 (S1PR1); assay: S1PR1 protein expression in HPAEC by Western blot; format: cell-based; design: Cells were collected and S1PR1 expression level was detected by Western blot; endogenous in cells; host or cells: HPAEC (human pulmonary artery endothelial cells); details: 1 μM (SEW2871 10 μM), 4 h
From the text: Cells were collected and S1PR1 expression level was detected by Western blot.

T1 sequence (P21453 whole entry): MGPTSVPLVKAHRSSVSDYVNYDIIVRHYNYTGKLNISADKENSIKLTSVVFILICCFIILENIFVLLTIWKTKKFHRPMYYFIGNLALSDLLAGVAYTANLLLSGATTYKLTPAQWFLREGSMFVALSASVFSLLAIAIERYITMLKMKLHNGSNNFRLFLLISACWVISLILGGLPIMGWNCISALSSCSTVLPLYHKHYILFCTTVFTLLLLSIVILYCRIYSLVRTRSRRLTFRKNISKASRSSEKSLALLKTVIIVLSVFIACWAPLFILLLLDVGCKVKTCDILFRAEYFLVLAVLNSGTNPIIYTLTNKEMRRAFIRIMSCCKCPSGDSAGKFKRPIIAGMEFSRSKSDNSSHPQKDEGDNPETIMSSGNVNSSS

SMILES: CCCCCCCCCCCCC/C=C/[C@@H](O)[C@@H](N)COP(=O)(O)O [S1P, sphingosine 1 phosphate]
- EC permeability to FITC-dextran vs control EC [1]: significantly decreased permeability
- doses that can disrupt EC monolayer integrity [2]: > 10 µM
- activation of β-arrestin (blue/green emission ratio) [3]: strongly activated
- maximal TER change [4]: somewhat barrier-disruptive
- ubiquitination of S1PR1 at 1 h [5]: significant ubiquitination
- intracellular calcium [Ca2+]i [6]: produced a transient Ca^2+ spike
- capillary leak as total BAL protein, relative to PBS control [7]: reduction in permeability by 1S was comparable to that achieved by S1P or FTY720
- ERK phosphorylation [8]: increased MLC and ERK phosphorylation
- MLC phosphorylation [9]: increased MLC and ERK phosphorylation
- % Inhibition of Maximal TER Response (of Agonist-Only Control), PTX ([10]; 2-h preincubation 100 ng/ml PTX): 98.35 (±0.25) %
- % Inhibition of Maximal TER Response (of Agonist-Only Control), MβCD ([10]; 2-h preincubation 2 mM MβCD): 81.5 (±8.0) %
- % Inhibition of Maximal TER Response (of Agonist-Only Control), Gen ([10]; 30-min preincubation 200 μM genistein): 42.4 (±13.9) %
- S1PR1 expression level compared to control [11]: 38.1%
